Assay results: article PMC8308678, “Treatment with Micafungin in a Preterm Neonate with an Invasive Candida parapsilosis Infection after a Severe Terlipressin-Induced Skin Necrosis” (Pathogens, 2021)
≈ marks a conversion by molar mass, not a printed value. Like-named read-outs stand apart in the source and are kept apart here. Starred links: 1 amine or outer side, 2 acyl side, 3 side chain; linkers in the order of their positions; H or OH if unused. Positions of bridges follow the written chain, without caps; N, C: chain ends. Non-standard residues stand in square brackets, D forms with d. Residues, ends and D or L forms follow the SMILES beside them. *: point of attachment. hTyr(3S-OH,4S-OH,3'-OSO3H) = N[C@H](C(=O)O)[C@H](O)[C@@H](O)c1ccc(O)c(OS(=O)(=O)O)c1; pTerphenylCO(4''-OnC5H11) = CCCCCOc1ccc(-c2ccc(-c3ccc(C(=O)*)cc3)cc2)cc1; Orn(4R-OH,5R-OH) = O=C([C@H](C[C@@H](O)[C@@H](O)N[*:3])N[*:1])[*:2]; hTyr(3S-OH,4S-OH) = N[C@H](C(=O)O)[C@H](O)[C@@H](O)c1ccc(O)cc1; Pro(3S-OH,4S-Me) = C[C@H]1CN[C@H](C(=O)O)[C@H]1O; X1 = CCCCCOc1ccc(-c2cc(-c3ccc(C(=O)*)cc3)no2)cc1; Gln(3R-OH) = NC(=O)C[C@@H](O)[C@H](N)C(=O)O; Hyp = O=C(O)[C@@H]1C[C@@H](O)CN1

How the values were obtained:
Candida parapsilosis = assay: microbe, parasite or virus in culture; assay type: cell-based; conditions: CLSI guidelines; for MIC: isolated Candida parapsilosis strain (cutaneous swab and urine culture); for Susceptibility of the isolated Candida strain: isolated Candida parapsilosis strain
Method: (§1) Cutaneous swab and urine culture both yielded Candida parapsilosis. The fungal load in urine was 1,000,000 CFU/mL. Susceptibility tests were performed according to the Clinical and Laboratory Standards Institute (CLSI) guidelines. Blood cultures resulted negative, but the child had been on antimicrobial therapy for several days. The isolated Candida strain was susceptible to micafungin (MIC, 0.5 µg/mL), anidulafungin (MIC, 2 µg/mL), fluconazole (MIC, 0.5 µg/mL), itraconazole (MIC, 0.06 µg/mL), voriconazole (MIC, <0.008 µg/mL) and amphotericin B (MIC, 0.5 µg/mL). Among the effective antifungals, we chose micafungin because of the feasibility of plasma concentration monitoring via heel stick capillary samples [8]. After given and obtained informed consent from the parents, both in relation to the high dosage of micafungin to be administered and monitored and to the participation in clinical trials and publications, micafungin was administered intravenously at a dose of 8 mg/kg/day; it was diluted in 0.9% saline solution at a concentration of 2 mg/mL and infused intravenously through epicutaneo-cava catheter in one hour. Plasma micafungin concentrations were measured by high performance liquid chromatography (HPLC) on the third day of the starting of therapy. The lower limit of detection (LLOD) of micafungin was 0.5 mg/L, and the lower limit of quantification (LLOQ) was 1 mg/L. (Table 1).

[1] = Clinical tolerability of micafungin (case report); assay type: in vivo, human preterm neonate; conditions: 8 mg/kg/day; for Side effects / tolerability: baby with previous cholestasis
Method: (§2) Given the severe clinical conditions of our patient, the epicutaneo-cava catheter was difficult to replace safely. The systemic therapy allowed complete infection control. […] We monitored plasma concentration of micafungin on 0.3 mL heel puncture blood samples, as previously described, in order to avoid excessive blood draws in a patient of low weight and in such severe clinical conditions.

[2] = Plasma micafungin concentration monitoring by HPLC; assay type: in vivo, human preterm neonate; conditions: one patient
Method: as §1, §2

[3] = system: confirmed or suspected ICIs; conditions: 8 mg/kg/day; 35 neonates with confirmed or suspected ICIs; cited from earlier work
From the text: Invasive Candida infections (ICIs) are a major cause of morbidity and mortality among very preterm infants; Candida albicans is the most frequently occurring species, although Candida parapsilosis infections are increasingly reported in preterm neonates. Despite the high minimum inhibitory concentration (MIC) necessary for Candida parapsilosis eradication, echinocandins have a prominent role when an ICI occurs in very preterm infants. These patients often carry a central vascular catheter in which Candida parapsilosis forms a biofilm, due to its adherence properties that favo ...

[4] = system: invasive Candida parapsilosis infection; assay: Clinical treatment of invasive Candida parapsilosis infection (case report); assay type: in vivo, human preterm neonate; conditions: 8 mg/kg/day; extremely preterm neonate with invasive Candida parapsilosis infection
Method: as §1, with “1). […]” for “1).”

| SMILES | MIC (Candida parapsilosis; read-out: MIC) | Susceptibility of the isolated Candida strain (Candida parapsilosis) | MIC (Candida parapsilosis) | other results |
| --- | --- | --- | --- | --- |
| C[C@@H]1[C@H](O)[C@@H](C)/C=C/C=C/C=C/C=C/C=C/C=C/C=C/[C@H](O[C@@H]2O[C@H](C)[C@@H](O)[C@H](N)[C@@H]2O)C[C@@H]2O[C@](O)(C[C@@H](O)C[C@@H](O)[C@H](O)CC[C@@H](O)C[C@@H](O)CC(=O)O[C@H]1C)C[C@H](O)[C@H]2C(=O)O [amphotericin B] | 0.5 µg/mL (≈ 0.541 µM) | susceptible | – | – |
| CCCCCOc1ccc(-c2ccc(-c3ccc(C(=O)N[C@H]4C[C@@H](O)[C@@H](O)NC(=O)[C@@H]5[C@@H](O)[C@@H](C)CN5C(=O)[C@H]([C@@H](C)O)NC(=O)[C@H]([C@H](O)[C@@H](O)c5ccc(O)cc5)NC(=O)[C@@H]5C[C@@H](O)CN5C(=O)[C@H]([C@@H](C)O)NC4=O)cc3)cc2)cc1 [anidulafungin] ({pTerphenylCO(4''-OnC5H11)}-[Orn(4R-OH,5R-OH)]T[Hyp][hTyr(3S-OH,4S-OH)]T[Pro(3S-OH,4S-Me)]; lactam 1-C; N-terminus assumed) | – | susceptible | 2 µg/mL (≈ 1.75 µM) | – |
| CCCCCOc1ccc(-c2cc(-c3ccc(C(=O)N[C@H]4C[C@@H](O)[C@@H](O)NC(=O)[C@@H]5[C@@H](O)[C@@H](C)CN5C(=O)[C@H]([C@H](O)CC(N)=O)NC(=O)[C@H]([C@H](O)[C@@H](O)c5ccc(O)c(OS(=O)(=O)O)c5)NC(=O)[C@@H]5C[C@@H](O)CN5C(=O)[C@H]([C@@H](C)O)NC4=O)cc3)no2)cc1 [micafungin] (X1-[Orn(4R-OH,5R-OH)]T[Hyp][hTyr(3S-OH,4S-OH,3'-OSO3H)][Gln(3R-OH)][Pro(3S-OH,4S-Me)]; lactam 1-C) | – | susceptible | 0.5 µg/mL (≈ 0.394 µM) | Side effects / tolerability [1]: did not cause side effects; Side effects / tolerability ([1]; listed as Micafungin): well tolerated; Aspartate aminotransaminase and alanine aminotransaminase ([1]; rapidly returned within normal range after discontinuation of therapy): transient increase; Plasma Cmax/MIC ratio ([2]; 8 mg/kg/day micafungin dose): > 10; Cmax ([2]; human, in vivo, iv, 8 mg/kg/day i.v. over one hour, third day of therapy, plasma, HPLC, read-out: Plasma micafungin concentration, 1 h after infusion (C max)): 11800 ng/mL; level at -0.5 h ([2]; human, iv, 8 mg/kg/day i.v. over one hour, third day of therapy, plasma, HPLC, heel puncture blood samples, read-out: Plasma micafungin concentration, 30 min before infusion (C min)): 3730 ng/mL; level at 2 h ([2]; human, iv, 8 mg/kg/day i.v. over one hour, third day of therapy, plasma, HPLC, read-out: Plasma micafungin concentration, 2 h after infusion): 9700 ng/mL; level at 8 h ([2]; human, iv, 8 mg/kg/day i.v. over one hour, third day of therapy, plasma, HPLC, read-out: Plasma micafungin concentration, 8 h after infusion): 7900 ng/mL; Response [3]: high response; Clinical efficacy [4]: effective |

More lines, main results first:

| MIC (Candida parapsilosis; read-out: MIC) | SMILES | Susceptibility of the isolated Candida strain (Candida parapsilosis) | MIC (Candida parapsilosis) | other results |
| --- | --- | --- | --- | --- |
| 0.5 µg/mL (≈ 1.63 µM) | OC(Cn1cncn1)(Cn1cncn1)c1ccc(F)cc1F [fluconazole] | susceptible | – | – |
| 0.06 µg/mL (≈ 0.085 µM) | CCC(C)n1ncn(-c2ccc(N3CCN(c4ccc(OCC5COC(Cn6cncn6)(c6ccc(Cl)cc6Cl)O5)cc4)CC3)cc2)c1=O (stereo not shown) [itraconazole] | susceptible | – | – |
| < 0.008 µg/mL | C[C@@H](c1ncncc1F)[C@](O)(Cn1cncn1)c1ccc(F)cc1F [voriconazole] | susceptible | – | – |
